Data published in patent publication US9580415B2, “Compounds” (Proximagen Limited, priority 2013, dated 2017).
pIC50: −log10 of the molar value.

Key:
human SSAO = human SSAO (Homo sapiens (Human), UniProt Q16853); experiment: SSAO enzyme inhibition assay (benzylamine substrate; hydrogen peroxide/HRP or aldehyde detection); type: biochemical; details: purified recombinantly expressed human SSAO, RT
Procedure: All primary assays were performed at RT. with purified recombinantly expressed human SSAO. Enzyme was prepared essentially as described in Öhman et al. (Protein Expression and Purification 46 (2006) 321-331). In addition, secondary- and selectivity assays were performed using SSAO prepared from various tissues or purified rat recombinant SSAO. The enzyme activity was assayed with benzylamine as substrate by measuring either benzaldehyde production, using ^14C-labeled substrate, or by utilizing the production of hydrogen peroxide in a horseradish peroxidase (HRP) coupled reaction. Briefly, test compounds were dissolved in dimethyl sulfoxide (DMSO) to a concentration of 10 mM. Dose-response measurements were assayed by either creating 1:10 serial dilutions in DMSO to produce a 7 point curve or by making 1:3 serial dilutions in DMSO to produce 11 point curves. The top concentrations were adjusted depending on the potency of the compounds and subsequent dilution in reaction buffer yielded a final DMSO concentration ≦2%.
In a horseradish peroxidase (HRP) coupled reaction, hydrogen peroxide oxidation of 10-acetyl-3,7-dihydroxyphenoxazine produced resorufin, which is a highly fluorescent compound (Zhout and Panchuk-Voloshina. Analytical Biochemistry 253 (1997) 169-174; Amplex® Red Hydrogen Peroxide/peroxidase Assay kit, Invitrogen A22188). Enzyme and compounds in 50 mM sodium phosphate, pH 7.4 were set to pre-incubate in flat-bottomed microtiter plates for approximately 15 min before initiating the reaction by addition of a mixture of HRP, benzylamine and Amplex reagent. Benzylamine concentration was fixed at a concentration corresponding to the Michaelis constant, determined using standard procedures. Fluorescence intensity was then measured at several time points during 1-2 h, exciting at 544 nm and reading the emission at 590 nm. For the human SSAO assay final concentrations of the reagents in the assay wells were: SSAO enzyme 1 ug/ml, benzylamine 100 uM, Amplex reagent 20 uM, HRP 0.1 U/mL and varying concentrations of test compound. The inhibition was measured as % decrease of the signal compared to a control without inhibitor (only diluted DMSO). The background signal from a sample containing no SSAO enzyme was subtracted from all data points. Data was fitted to a four parameter logistic model and IC50 values were calculated using the GraphPad Prism 4 or XLfit 4 programs.
SSAO activity was assayed using […] benzylamine and analysed by measuring radioactive benzaldehyde. In a white 96-well optiplate (Packard), 20 uL of diluted test compound was pre-incubated at room temperature with 20 uL SSAO enzyme for approximately 15 min with continuous agitation. All dilutions were made with PBS. The reaction was initiated by adding 20 uL of the benzylamine substrate solution containing Benzylamine hydrochloride (CFA589, GE Healthcare). The plate was incubated for 1 h as above after which the reaction was stopped by acidification (10 uL 1M aq HCl). Then 90 uL Micro Scint-E solution (Perkin-Elmer) was added to each well and the plate was continuously mixed for 15 min. Phase separation occurred instantly and activity was read in a Topcount scintillation counter (Perkin-Elmer). In the final reaction well, the human recombinant SSAO concentration was 10 ug/ml. In order to optimize sensitivity, the substrate concentration was decreased as compared to the HRP coupled assay in order to get a higher fraction of radioactive product. In the human SSAO assay, benzylamine concentration was 40 uM (0.2 uCi/mL). Data was analysed as above.

hERG K+ channel = hERG K+ channel (Homo sapiens (Human), UniProt Q12809); experiment: hERG assay, IonWorks patch clamp electrophysiology; type: cell-based; details: Chinese Hamster Lung cell line stably expressing hERG, IonWorks Quattro, max 11 uM
Procedure: Compounds of the invention were tested for inhibition of the human ether a go-go related gene (hERG) K^+ channel using IonWorks patch clamp electrophysiology. 8 Point concentration-response curves were generated on two occasions using 3-fold serial dilutions from the maximum assay concentration (11 uM). Electrophysiological recordings were made from a Chinese Hamster Lung cell line stably expressing the full length hERG channel. Single cell ion currents were measured in the perforated patch clamp configuration (100 ug/mL amphoterocin) at room temperature using an IonWorks Quattro instrument. The internal solution contained 140 mM KCl, 1 mM MgCl2, 1 mM EGTA and 20 mM HEPES and was buffered to pH 7.3. The external solution contained 138 mM NaCl, 2.7 mM KCl, 0.9 mM CaCl2, 0.5 mM MgCl2, 8 mM Na2HPO4 and 1.5 mM KH2PO4, and was buffered to pH 7.3. Cells were clamped at a holding potential of […] for 30 s and then stepped to +40 mV for 1 s. This was followed by a hyperpolarising step of 1 s to […] to evoke the hERG tail current. This sequence was repeated 5 times at a frequency of 0.25 Hz. Currents were measured from the tail step at the 5th pulse, and referenced to the holding current. […] A minimum of 17 cells were required for each pIC50 curve fit.

hERG K+ channel, sequence (Q12809 whole entry): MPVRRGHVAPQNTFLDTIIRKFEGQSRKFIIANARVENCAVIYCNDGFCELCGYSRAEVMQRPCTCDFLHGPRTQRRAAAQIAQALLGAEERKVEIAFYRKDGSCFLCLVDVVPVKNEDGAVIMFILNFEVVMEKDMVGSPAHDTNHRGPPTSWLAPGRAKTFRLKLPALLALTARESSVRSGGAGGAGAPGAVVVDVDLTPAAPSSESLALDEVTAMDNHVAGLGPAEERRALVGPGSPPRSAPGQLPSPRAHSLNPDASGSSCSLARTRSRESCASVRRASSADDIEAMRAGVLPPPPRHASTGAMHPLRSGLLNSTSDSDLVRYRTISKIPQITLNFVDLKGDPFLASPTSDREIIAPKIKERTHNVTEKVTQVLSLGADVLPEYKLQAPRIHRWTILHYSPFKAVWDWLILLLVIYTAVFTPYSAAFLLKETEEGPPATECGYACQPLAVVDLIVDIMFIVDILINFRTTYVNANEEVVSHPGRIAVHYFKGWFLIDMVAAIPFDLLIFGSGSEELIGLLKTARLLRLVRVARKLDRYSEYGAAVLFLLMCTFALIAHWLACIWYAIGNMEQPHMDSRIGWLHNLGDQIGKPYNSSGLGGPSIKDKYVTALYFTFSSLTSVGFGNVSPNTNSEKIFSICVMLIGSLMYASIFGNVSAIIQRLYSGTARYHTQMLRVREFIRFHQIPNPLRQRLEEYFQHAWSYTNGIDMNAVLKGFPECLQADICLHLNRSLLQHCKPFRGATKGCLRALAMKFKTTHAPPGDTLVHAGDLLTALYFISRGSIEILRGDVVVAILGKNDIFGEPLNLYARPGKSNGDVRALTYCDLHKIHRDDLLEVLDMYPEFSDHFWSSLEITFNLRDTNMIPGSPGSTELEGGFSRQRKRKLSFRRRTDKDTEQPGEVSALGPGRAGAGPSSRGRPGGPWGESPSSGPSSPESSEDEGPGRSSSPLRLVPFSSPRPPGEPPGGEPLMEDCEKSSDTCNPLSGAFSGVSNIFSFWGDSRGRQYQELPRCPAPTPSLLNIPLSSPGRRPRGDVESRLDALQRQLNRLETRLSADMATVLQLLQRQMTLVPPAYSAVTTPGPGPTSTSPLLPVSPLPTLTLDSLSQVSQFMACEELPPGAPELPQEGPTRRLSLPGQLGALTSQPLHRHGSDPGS
human SSAO, sequence (Q16853 whole entry): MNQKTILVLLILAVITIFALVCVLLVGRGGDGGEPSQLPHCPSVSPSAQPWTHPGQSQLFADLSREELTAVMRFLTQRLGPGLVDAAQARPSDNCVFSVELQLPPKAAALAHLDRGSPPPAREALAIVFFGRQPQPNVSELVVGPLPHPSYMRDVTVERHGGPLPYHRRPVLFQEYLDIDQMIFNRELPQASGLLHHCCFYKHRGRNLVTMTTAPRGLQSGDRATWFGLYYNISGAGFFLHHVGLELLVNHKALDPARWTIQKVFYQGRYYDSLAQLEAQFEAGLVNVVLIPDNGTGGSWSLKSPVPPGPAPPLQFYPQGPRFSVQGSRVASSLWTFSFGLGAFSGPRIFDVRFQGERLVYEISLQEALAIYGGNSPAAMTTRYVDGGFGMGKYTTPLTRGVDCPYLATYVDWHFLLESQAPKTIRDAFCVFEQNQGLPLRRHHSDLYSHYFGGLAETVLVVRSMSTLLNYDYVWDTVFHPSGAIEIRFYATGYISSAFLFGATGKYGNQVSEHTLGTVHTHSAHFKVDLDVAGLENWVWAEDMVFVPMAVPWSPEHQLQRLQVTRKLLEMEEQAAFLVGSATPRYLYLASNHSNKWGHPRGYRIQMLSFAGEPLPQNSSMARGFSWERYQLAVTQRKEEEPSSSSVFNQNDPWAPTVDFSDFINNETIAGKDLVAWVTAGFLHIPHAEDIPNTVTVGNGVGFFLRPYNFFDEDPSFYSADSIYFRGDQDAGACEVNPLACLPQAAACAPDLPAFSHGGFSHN

In the case of `NC(=O)N1CCC(c2c(-c3ccc(N)nc3)n(-c3ccc(Cl)cc3)c3cnccc23)CC1` [Example 1, 4-[2-(6-Aminopyridin-3-yl)-1-(4-chlorophenyl)-1H-pyrrolo[2,3-c]pyridin-3-yl]piperidine-1-carboxamide], the pIC50 (human SSAO) was over 8.00 and the pIC50 (hERG K+ channel; human, pH 7.3) was 5.00 to 6.00.
Work on `NC(=O)N1CCC(c2c(-c3cccnc3)n(-c3ccc(Cl)cc3)c3cnccc23)CC1` [Example 2, 4-[1-(4-Chlorophenyl)-2-(pyridin-3-yl)-1H-pyrrolo[2,3-c]pyridin-3-yl]piperidine-1-carboxamide; formic acid] yielded a pIC50 (human SSAO) of 7.00 to 8.00 and a pIC50 (hERG K+ channel; human, pH 7.3) of 5.00 to 6.00.
With `COc1ccc(-c2c(C3CCN(C(N)=O)CC3)c3ccncc3n2-c2ccc(Cl)cc2)cn1` [Example 3, 4-[1-(4-Chlorophenyl)-2-(6-methoxypyridin-3-yl)-1H-pyrrolo[2,3-c]pyridin-3-yl]piperidine-1-carboxamide; formic acid] the pIC50 (human SSAO) was over 8.00.
For `COc1cc(-c2c(C3CCN(C(N)=O)CC3)c3ccncc3n2-c2ccc(Cl)cc2)ccn1` [Example 4, 4-[1-(4-Chlorophenyl)-2-(2-methoxypyridin-4-yl)-1H-pyrrolo[2,3-c]pyridin-3-yl]piperidine-1-carboxamide; formic acid], the pIC50 (human SSAO) was over 8.00 and the pIC50 (hERG K+ channel) was 6.00 to 7.00.
For `CN1CCN(c2cc(-c3c(C4CCN(C(N)=O)CC4)c4ccncc4n3-c3ccc(Cl)cc3)ccn2)CC1` [Example 5, 4-[1-(4-Chlorophenyl)-2-[2-(4-methylpiperazin-1-yl)pyridin-4-yl]-1H-pyrrolo[2,3-c]pyridin-3-yl]piperidine-1-carboxamide; bis(formic acid)], the pIC50 (human SSAO) was over 8.00.
`NC(=O)N1CCC(c2c(-c3ccc(N4CCOCC4)nc3)n(-c3ccc(Cl)cc3)c3cnccc23)CC1` [Example 6, 4-[1-(4-Chlorophenyl)-2-[6-(morpholin-4-yl)pyridin-3-yl]-1H-pyrrolo[2,3-c]pyridin-3-yl]piperidine-1-carboxamide] gave a pIC50 (human SSAO) of over 8.00.
`NC(=O)N1CCC(c2c(-c3cncnc3)n(-c3ccc(Cl)cc3)c3cnccc23)CC1` [Example 7, 4-[1-(4-Chlorophenyl)-2-(pyrimidin-5-yl)-1H-pyrrolo[2,3-c]pyridin-3-yl]piperidine-1-carboxamide] showed a pIC50 (human SSAO) of 7.00 to 8.00 and a pIC50 (hERG K+ channel; human, pH 7.3) of 5.00 to 6.00.
With `NC(=O)N1CCC(c2c(-c3cc[nH]n3)n(-c3ccc(Cl)cc3)c3cnccc23)CC1` [Example 8, 4-[1-(4-Chlorophenyl)-2-(1H-pyrazol-3-yl)-1H-pyrrolo[2,3-c]pyridin-3-yl]piperidine-1-carboxamide] the pIC50 (human SSAO) was 7.00 to 8.00 and the pIC50 (hERG K+ channel; human, pH 7.3) was 5.00 to 6.00.
`NC(=O)N1CCC(c2c(-c3cn[nH]c3)n(-c3ccc(Cl)cc3)c3cnccc23)CC1` [Example 9, 4-[1-(4-Chlorophenyl)-2-(1H-pyrazo1-4-yl)-1H-pyrrolo[2,3-c]pyridin-3-yl]piperidine-1-carboxamide] showed a pIC50 (human SSAO) of over 8.00 and a pIC50 (hERG K+ channel) of under 5.00.
With `Cn1cc(-c2c(C3CCN(C(N)=O)CC3)c3ccncc3n2-c2ccc(Cl)cc2)cn1` [Example 10, 4-[1-(4-Chlorophenyl)-2-(1-methyl-1H-pyrazol-4-yl)-1H-pyrrolo[2,3-c]pyridin-3-yl]piperidine-1-carboxamide; trifluoroacetic acid] the pIC50 (human SSAO) was over 8.00.
Compound `Cn1nccc1-c1c(C2CCN(C(N)=O)CC2)c2ccncc2n1-c1ccc(Cl)cc1` [Example 11, 4-[1-(4-Chlorophenyl)-2-(1-methyl-1H-pyrazol-5-yl)-1H-pyrrolo[2,3-c]pyridin-3-yl]piperidine-1-carboxamide] has a pIC50 (human SSAO) of over 8.00.
Compound `Cn1cncc1-c1c(C2CCN(C(N)=O)CC2)c2ccncc2n1-c1ccc(Cl)cc1` [Example 12, 4-[1-(4-Chlorophenyl)-2-(1-methyl-1H-imidazol-5-yl)-1H-pyrrolo[2,3-c]pyridin-3-yl]piperidine-1-carboxamide] has a pIC50 (human SSAO) of over 8.00 and a pIC50 (hERG K+ channel) of under 5.00.
In the case of `NC(=O)N1CCC(c2c(-n3cccn3)n(-c3ccc(Cl)cc3)c3cnccc23)CC1` [Example 13, 4-[1-(4-Chlorophenyl)-2-(1H-pyrazol-1-yl)-1H-pyrrolo[2,3-c]pyridin-3-yl]piperidine-1-carboxamide; formic acid], the pIC50 (human SSAO) was 7.00 to 8.00 and the pIC50 (hERG K+ channel; human, pH 7.3) was 5.00 to 6.00.
Compound `NC(=O)N1CCC(c2c(-n3ccnc3)n(-c3ccc(Cl)cc3)c3cnccc23)CC1` [Example 14, 4-[1-(4-Chlorophenyl)-2-(1H-imidazol-1-yl)-1H-pyrrolo[2,3-c]pyridin-3-yl]piperidine-1-carboxamide; bis(formic acid)] has a pIC50 (human SSAO) of 7.00 to 8.00 and a pIC50 (hERG K+ channel) of under 5.00.
Work on `NC(=O)N1CCC(c2c(-n3ccnn3)n(-c3ccc(Cl)cc3)c3cnccc23)CC1` [Example 15, 4-[1-(4-Chlorophenyl)-2-(1H-1,2,3-triazol-1-yl)-1H-pyrrolo[2,3-c]pyridin-3-yl]piperidine-1-carboxamide] yielded a pIC50 (human SSAO) of 6.46 to 7.00.
In the case of `NC(=O)N1CCC(c2c(-n3cncn3)n(-c3ccc(Cl)cc3)c3cnccc23)CC1` [Example 16, 4-[1-(4-Chlorophenyl)-2-(1H-1,2,4-triazol-1-yl)-1H-pyrrolo[2,3-c]pyridin-3-yl]piperidine-1-carboxamide], the pIC50 (human SSAO) was 6.46 to 7.00.
`Clc1ccc(-n2c(-c3ccncc3)c(C3CCNCC3)c3ccncc32)cc1` [Example 17, 4-[1-(4-Chlorophenyl)-3-(piperidin-4-yl)-1H-pyrrolo[2,3-c]pyridin-2-yl]pyridine] showed a pIC50 (human SSAO) of over 8.00 and a pIC50 (hERG K+ channel; human, pH 7.3) of 5.00 to 6.00.
Work on `Nc1ccc(-c2c(C3CCNCC3)c3ccncc3n2-c2ccc(Cl)cc2)cn1` [Example 18, 5-[1-(4-Chlorophenyl)-3-(piperidin-4-yl)-1H-pyrrolo[2,3-c]pyridin-2-yl]pyridin-2-amine] yielded a pIC50 (human SSAO) of 7.00 to 8.00 and a pIC50 (hERG K+ channel) of under 5.00.
Work on `CN(C)Cc1c(-c2ccncc2)n(-c2ccc(Cl)cc2)c2cnccc12` [Example 19, {[1-(4-Chlorophenyl)-2-(pyridin-4-yl)-1H-pyrrolo[2,3-c]pyridin-3-yl]methyl}dimethyl amine] yielded a pIC50 (human SSAO) of 7.00 to 8.00 and a pIC50 (hERG K+ channel; human, pH 7.3) of 5.00 to 6.00.
`CN(C)Cc1c(-c2cccnc2)n(-c2ccc(Cl)cc2)c2cnccc12` [Example 20, {[1-(4-Chlorophenyl)-2-(pyridin-3-yl)-1H-pyrrolo[2,3-c]pyridin-3-yl]methyl}dimethyl amine] gave a pIC50 (human SSAO) of 6.46 to 7.00.
With `Clc1ccc(-n2c(-c3nn[nH]n3)c(C3CCNCC3)c3ccncc32)cc1` [Example 21, 4-[1-(4-Chlorophenyl)-2-(2H-1,2,3,4-tetrazol-5-yl)-1H-pyrrolo[2,3-c]pyridin-3-yl]piperidine; bis(trifluoroacetic acid)] the pIC50 (human SSAO) was 6.46 to 7.00 and the pIC50 (hERG K+ channel) was under 5.00.
